{
  "source": "the CheMixHub ionic liquid set",
  "assay": "xn = mol fraction of the nth substance listed",
  "note": "± gives the uncertainty stated by the source.",
  "data": [
    {"molecule": "CCCC[n+]1ccn(C)c1.F[P-](F)(F)(F)(F)F", "note": "+ Cc1ccccc1", "values": [
      {"measurement": "viscosity", "setting": "298.15 K, 101 kPa, x2 = 0.05", "result": "172.6 ± 8.8", "unit": "mPa·s"},
      {"measurement": "viscosity", "setting": "300.65 K, 101 kPa, x2 = 0.2", "result": "74.9 ± 3.8", "unit": "mPa·s"},
      {"measurement": "viscosity", "setting": "300.65 K, 101 kPa, x2 = 0.4", "result": "31.2 ± 1.5", "unit": "mPa·s"},
      {"measurement": "viscosity", "setting": "303.15 K, 101 kPa, x2 = 0.1", "result": "73.3 ± 3.4", "unit": "mPa·s"},
      {"measurement": "viscosity", "setting": "303.15 K, 101 kPa, x2 = 0.3", "result": "39.5 ± 1.7", "unit": "mPa·s"},
      {"measurement": "viscosity", "setting": "305.65 K, 101 kPa, x2 = 0.3", "result": "32.5 ± 1.4", "unit": "mPa·s"},
      {"measurement": "viscosity", "setting": "308.15 K, 101 kPa, x2 = 0.3", "result": "27.6 ± 1.2", "unit": "mPa·s"},
      {"measurement": "viscosity", "setting": "310.65 K, 101 kPa, x2 = 0.1", "result": "39.8 ± 1.7", "unit": "mPa·s"},
      {"measurement": "viscosity", "setting": "313.15 K, 101 kPa, x2 = 0.4", "result": "14.12 ± 0.58", "unit": "mPa·s"},
      {"measurement": "viscosity", "setting": "318.15 K, 101 kPa, x2 = 0.3", "result": "17.56 ± 0.72", "unit": "mPa·s"},
      {"measurement": "viscosity", "setting": "320.65 K, 101 kPa, x2 = 0.3", "result": "16.21 ± 0.67", "unit": "mPa·s"},
      {"measurement": "viscosity", "setting": "320.65 K, 101 kPa, x2 = 0.4", "result": "11.32 ± 0.46", "unit": "mPa·s"},
      {"measurement": "viscosity", "setting": "328.15 K, 101 kPa, x2 = 0.05", "result": "27.7 ± 1.1", "unit": "mPa·s"},
      {"measurement": "viscosity", "setting": "330.65 K, 101 kPa, x2 = 0.05", "result": "26 ± 1.1", "unit": "mPa·s"},
      {"measurement": "viscosity", "setting": "335.65 K, 101 kPa, x2 = 0.4", "result": "8.8 ± 0.36", "unit": "mPa·s"},
      {"measurement": "viscosity", "setting": "338.15 K, 101 kPa, x2 = 0.05", "result": "22.02 ± 0.9", "unit": "mPa·s"}
    ]},
    {"molecule": "CN(C)C=O", "note": "+ CCCC[n+]1ccn(C)c1.[Cl-]", "values": [
      {"measurement": "viscosity", "setting": "288.15 K, 101 kPa, x1 = 1", "result": "0.94 ± 0.11", "unit": "mPa·s"}
    ]},
    {"molecule": "CCCC[n+]1ccn(C)c1.F[P-](F)(F)(F)(F)F", "note": "+ C1CCOC1", "values": [
      {"measurement": "viscosity", "setting": "298.15 K, 101 kPa, x2 = 0.195", "result": "91 ± 15", "unit": "mPa·s"}
    ]},
    {"molecule": "CCCCCCO", "note": "+ CCCC[n+]1ccn(C)c1.O=S(=O)([N-]S(=O)(=O)C(F)(F)F)C(F)(F)F", "values": [
      {"measurement": "viscosity", "setting": "298 K, 100 kPa, x2 = 0", "result": "4.502 ± 0.07", "unit": "mPa·s"},
      {"measurement": "electrical conductivity", "setting": "298 K, 100 kPa, x2 = 0.6", "result": "0.5605 ± 0.0056", "unit": "S/m"},
      {"measurement": "electrical conductivity", "setting": "298 K, 100 kPa, x2 = 0.7", "result": "0.491 ± 0.0049", "unit": "S/m"},
      {"measurement": "viscosity", "setting": "298 K, 100 kPa, x2 = 0.7", "result": "26.59 ± 0.6", "unit": "mPa·s"},
      {"measurement": "electrical conductivity", "setting": "298 K, 100 kPa, x2 = 0.8", "result": "0.4635 ± 0.0046", "unit": "S/m"},
      {"measurement": "viscosity", "setting": "298 K, 100 kPa, x2 = 0.8006", "result": "32.43 ± 0.77", "unit": "mPa·s"},
      {"measurement": "viscosity", "setting": "298 K, 100 kPa, x2 = 0.899", "result": "40.3 ± 1", "unit": "mPa·s"},
      {"measurement": "electrical conductivity", "setting": "298 K, 100 kPa, x2 = 0.9", "result": "0.427 ± 0.043", "unit": "S/m"}
    ]},
    {"molecule": "CN1CCCC1=O", "note": "+ CCCC[n+]1ccn(C)c1.N#C[S-]", "values": [
      {"measurement": "viscosity", "setting": "288.15 K, 101 kPa, x2 = 0", "result": "2.133 ± 0.023", "unit": "mPa·s"},
      {"measurement": "viscosity", "setting": "298.15 K, 101 kPa, x2 = 0", "result": "1.791 ± 0.02", "unit": "mPa·s"},
      {"measurement": "viscosity", "setting": "308.15 K, 101 kPa, x2 = 0", "result": "1.549 ± 0.018", "unit": "mPa·s"},
      {"measurement": "viscosity", "setting": "318.15 K, 101 kPa, x2 = 0", "result": "1.285 ± 0.017", "unit": "mPa·s"}
    ]},
    {"molecule": "CCCC[n+]1ccn(C)c1.O=S(=O)([N-]S(=O)(=O)C(F)(F)F)C(F)(F)F", "note": "+ CC(=O)[O-].CCCC[NH2+]CCO", "values": [
      {"measurement": "viscosity", "setting": "278.15 K, 101 kPa, x2 = 0", "result": "145.6 ± 2.3", "unit": "mPa·s"},
      {"measurement": "viscosity", "setting": "288.15 K, 101 kPa, x2 = 0", "result": "83.44 ± 0.91", "unit": "mPa·s"},
      {"measurement": "viscosity", "setting": "293.15 K, 101 kPa, x2 = 0", "result": "65.11 ± 0.61", "unit": "mPa·s"},
      {"measurement": "viscosity", "setting": "318.15 K, 101 kPa, x2 = 0", "result": "24.05 ± 0.22", "unit": "mPa·s"}
    ]},
    {"molecule": "CC1CNCCN1", "note": "(configuration not stated) + CC(=O)[O-].CCCC[n+]1ccn(C)c1 + O", "values": [
      {"measurement": "viscosity", "setting": "298.15 K, 100 kPa, x2 = 0.04327, x1 = 0.02647", "result": "3.46 ± 0.05", "unit": "mPa·s"},
      {"measurement": "viscosity", "setting": "298.15 K, 100 kPa, x2 = 0.05132, x1 = 0.01784", "result": "3.58 ± 0.08", "unit": "mPa·s"},
      {"measurement": "viscosity", "setting": "298.15 K, 100 kPa, x2 = 0.05944, x1 = 0.009089", "result": "4.03 ± 0.06", "unit": "mPa·s"},
      {"measurement": "viscosity", "setting": "303.15 K, 100 kPa, x2 = 0.04327, x1 = 0.02647", "result": "3.23 ± 0.05", "unit": "mPa·s"},
      {"measurement": "viscosity", "setting": "303.15 K, 100 kPa, x2 = 0.05132, x1 = 0.01784", "result": "3.38 ± 0.07", "unit": "mPa·s"},
      {"measurement": "viscosity", "setting": "303.15 K, 100 kPa, x2 = 0.05944, x1 = 0.009089", "result": "3.78 ± 0.06", "unit": "mPa·s"},
      {"measurement": "viscosity", "setting": "308.15 K, 100 kPa, x2 = 0.04327, x1 = 0.02647", "result": "2.82 ± 0.04", "unit": "mPa·s"},
      {"measurement": "viscosity", "setting": "308.15 K, 100 kPa, x2 = 0.05132, x1 = 0.01784", "result": "3.16 ± 0.06", "unit": "mPa·s"},
      {"measurement": "viscosity", "setting": "308.15 K, 100 kPa, x2 = 0.05944, x1 = 0.009089", "result": "3.72 ± 0.06", "unit": "mPa·s"},
      {"measurement": "viscosity", "setting": "313.15 K, 100 kPa, x2 = 0.04327, x1 = 0.02647", "result": "2.64 ± 0.04", "unit": "mPa·s"},
      {"measurement": "viscosity", "setting": "313.15 K, 100 kPa, x2 = 0.05132, x1 = 0.01784", "result": "3.02 ± 0.05", "unit": "mPa·s"},
      {"measurement": "viscosity", "setting": "313.15 K, 100 kPa, x2 = 0.05944, x1 = 0.009089", "result": "3.24 ± 0.05", "unit": "mPa·s"},
      {"measurement": "viscosity", "setting": "318.15 K, 100 kPa, x2 = 0.04327, x1 = 0.02647", "result": "2.39 ± 0.04", "unit": "mPa·s"},
      {"measurement": "viscosity", "setting": "318.15 K, 100 kPa, x2 = 0.05132, x1 = 0.01784", "result": "2.84 ± 0.05", "unit": "mPa·s"},
      {"measurement": "viscosity", "setting": "318.15 K, 100 kPa, x2 = 0.05944, x1 = 0.009089", "result": "3.11 ± 0.05", "unit": "mPa·s"},
      {"measurement": "viscosity", "setting": "323.15 K, 100 kPa, x2 = 0.04327, x1 = 0.02647", "result": "1.91 ± 0.03", "unit": "mPa·s"},
      {"measurement": "viscosity", "setting": "323.15 K, 100 kPa, x2 = 0.05132, x1 = 0.01784", "result": "2.52 ± 0.09", "unit": "mPa·s"},
      {"measurement": "viscosity", "setting": "323.15 K, 100 kPa, x2 = 0.05944, x1 = 0.009089", "result": "2.89 ± 0.04", "unit": "mPa·s"},
      {"measurement": "viscosity", "setting": "328.15 K, 100 kPa, x2 = 0.04327, x1 = 0.02647", "result": "1.31 ± 0.02", "unit": "mPa·s"},
      {"measurement": "viscosity", "setting": "328.15 K, 100 kPa, x2 = 0.05132, x1 = 0.01784", "result": "2.47 ± 0.14", "unit": "mPa·s"},
      {"measurement": "viscosity", "setting": "328.15 K, 100 kPa, x2 = 0.05944, x1 = 0.009089", "result": "2.54 ± 0.04", "unit": "mPa·s"},
      {"measurement": "viscosity", "setting": "333.15 K, 100 kPa, x2 = 0.04327, x1 = 0.02647", "result": "1.16 ± 0.02", "unit": "mPa·s"},
      {"measurement": "viscosity", "setting": "333.15 K, 100 kPa, x2 = 0.05132, x1 = 0.01784", "result": "1.83 ± 0.09", "unit": "mPa·s"},
      {"measurement": "viscosity", "setting": "333.15 K, 100 kPa, x2 = 0.05944, x1 = 0.009089", "result": "2.03 ± 0.03", "unit": "mPa·s"}
    ]},
    {"molecule": "CCCC[n+]1ccccc1.O=S(=O)([N-]S(=O)(=O)C(F)(F)F)C(F)(F)F", "note": "+ Cc1ccccc1", "values": [
      {"measurement": "viscosity", "setting": "293.15 K, 100 kPa, x2 = 0.3972", "result": "22.63 ± 0.48", "unit": "mPa·s"},
      {"measurement": "viscosity", "setting": "293.15 K, 100 kPa, x2 = 0.6068", "result": "10 ± 0.21", "unit": "mPa·s"},
      {"measurement": "viscosity", "setting": "298.15 K, 100 kPa, x2 = 0", "result": "52.9 ± 1.1", "unit": "mPa·s"},
      {"measurement": "viscosity", "setting": "298.15 K, 100 kPa, x2 = 0.5025", "result": "13.64 ± 0.29", "unit": "mPa·s"},
      {"measurement": "viscosity", "setting": "303.15 K, 100 kPa, x2 = 0.2939", "result": "21.68 ± 0.46", "unit": "mPa·s"},
      {"measurement": "viscosity", "setting": "308.15 K, 100 kPa, x2 = 0.3972", "result": "14.21 ± 0.3", "unit": "mPa·s"},
      {"measurement": "viscosity", "setting": "308.15 K, 100 kPa, x2 = 0.5025", "result": "10.54 ± 0.22", "unit": "mPa·s"},
      {"measurement": "viscosity", "setting": "313.15 K, 100 kPa, x2 = 0.3972", "result": "12.3 ± 0.26", "unit": "mPa·s"},
      {"measurement": "viscosity", "setting": "313.15 K, 100 kPa, x2 = 0.6068", "result": "6.62 ± 0.14", "unit": "mPa·s"}
    ]}
  ]
}
